In patent US12612424B2, “HPK1 inhibitors and uses thereof” (Regor Pharmaceuticals, Inc., priority 2019, dated 2026):

Test system: Human Pan T Cell (IL-2 release)
Assay: IL2 released by human pan T cell upon anti-CD3/anti-CD28 stimulation (ELISA)
Format: cell-based
Conditions: human pan T cells; for maximal fold induction / EC (2-fold response) / EC50: Homo sapiens, T-cell; for maximal fold induction / EC (2-fold response): 48 h; for maximal fold induction: response of IL-2 over DMSO control, anti-CD3/anti-CD28, 48 hours, ELISA, read-out: IL-2 Max Fold Response; for EC50: IL-2 response, calculated with GraphPad Prism
Summary of the method: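 Primary human pan-T cells, negatively isolated from PBMC, plated at 100,000 cells/well and stimulated with immobilized anti-CD3 plus soluble anti-CD28 in presence of test compound at varying concentrations. After 2 days, secreted IL-2 in supernatant quantified by ELISA.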

[1] = concentration of compound that gives 200% IL-2 response (2 folds) over DMSO control

Structure (SMILES)	maximal fold induction	EC (2-fold response) [1]	EC50	EC2x (nM) [1]
COc1cc2c(cc1Nc1ncc(Cl)c(-n3cc(P(C)(C)=O)c4ccccc43)n1)CN(C)CC2 [Example 1, (1-(5-Chloro-2-((6-methoxy-2-methyl-1,2,3,4-tetrahydroisoquinolin-7-yl)amino)pyrimidin-4-yl)-1H-indol-3-yl)dimethylphosphine oxide]	< 2			
COc1nc2c(cc1Nc1ncc(Cl)c(N3CCc4ccccc43)n1)CN(C)CC2 [Example 19, N-(5-chloro-4-(indolin-1-yl)pyrimidin-2-yl)-2-methoxy-6-methyl-5,6,7,8-tetrahydro-1,6-naphthyridin-3-amine]	> 2	0.1 to 0.5 µM	100 to 500 nM	
COc1cc2c(cc1Nc1ncc(Cl)c(N3CCc4cc(F)ccc43)n1)CN(C)CC2 [Example 20, N-(5-chloro-4-(5-fluoroindolin-1-yl)pyrimidin-2-yl)-6-methoxy-2-methyl-1,2,3,4-tetrahydroisoquinolin-7-amine]	> 2	0.1 to 0.5 µM	100 to 500 nM	
COc1cc2c(cc1Nc1ncc(Cl)c(N3CCc4ccc(F)cc43)n1)CN(C)CC2 [Example 21, N-(5-chloro-4-(6-fluoroindolin-1-yl)pyrimidin-2-yl)-6-methoxy-2-methyl-1,2,3,4-tetrahydroisoquinolin-7-amine]	> 2	0.1 to 0.5 µM	100 to 500 nM	
COc1cc2c(cc1Nc1ncc(Cl)c(N3CCc4ccccc43)n1)CN(C(C)C)CC2 [Example 22, N-(5-chloro-4-(indolin-1-yl)pyrimidin-2-yl)-2-isopropyl-6-methoxy-1,2,3,4-tetrahydroisoquinolin-7-amine]	> 2	0.1 to 0.5 µM	500 to 1000 nM	
COc1cc2c(cc1Nc1ncc(Cl)c(N3CCc4ccccc43)n1)CNCC2 [Example 23, N-(5-chloro-4-(indolin-1-yl)pyrimidin-2-yl)-6-methoxy-1,2,3,4-tetrahydroisoquinolin-7-amine]	< 2		100 to 500 nM	
COc1cc2c(cc1Nc1ncc(Cl)c(-n3ncc4ccccc43)n1)CN(C)CC2 [Example 24, N-(5-Chloro-4-(1H-indazol-1-yl)pyrimidin-2-yl)-6-methoxy-2-methyl-1,2,3,4-tetrahydroisoquinolin-7-amine]	< 2		500 to 1000 nM	
COc1cc2c(cc1Nc1ncc(Cl)c(N3CC(C)(C)c4ccccc43)n1)CN(C)CC2 [Example 25, N-(5-Chloro-4-(3,3-dimethylindolin-1-yl)pyrimidin-2-yl)-6-methoxy-2-methyl-1,2,3,4-tetrahydroisoquinolin-7-amine]	> 2	0.1 to 0.5 µM	500 to 1000 nM	
COc1nc2c(cc1Nc1ncc(Cl)c(N3CCc4ncccc43)n1)CN(C)CC2 [Example 29, N-(5-Chloro-4-(2,3-dihydro-1H-pyrrolo[3,2-b]pyridin-1-yl)pyrimidin-2-yl)-2-methoxy-6-methyl-5,6,7,8-tetrahydro-1,6-naphthyridin-3-amine]	< 2		500 to 1000 nM	
COc1cc2c(cc1Nc1ncc(Cl)c(N3CC(C(=O)O)c4ccccc43)n1)CN(C)CC2 (stereo not drawn) [Example 32, 1-(5-Chloro-2-((6-methoxy-2-methyl-1,2,3,4-tetrahydroisoquinolin-7-yl)amino)pyrimidin-4-yl)indoline-3-carboxylic acid]	> 2	0.1 to 0.5 µM	100 to 500 nM	
COc1cc2c(cc1Nc1ncc(Cl)c(N3CC(C(N)=O)c4ccccc43)n1)CN(C)CC2 (stereo not drawn) [Example 33, 1-(5-Chloro-2-((6-methoxy-2-methyl-1,2,3,4-tetrahydroisoquinolin-7-yl)amino)pyrimidin-4-yl)indoline-3-carboxamide]	< 2			
COc1cc2c(cc1Nc1ncc(Cl)c(-n3cc(C(N)=O)c4ccccc43)n1)CN(C)CC2 [Example 34]	< 2			
COc1cc2c(cc1Nc1ncc(Cl)c(-n3cc(C(=O)O)c4ccccc43)n1)CN(C)CC2 [Example 35]	> 2		500 to 1000 nM	+ (“+”, for greater than 1 μM)
COc1cc2c(cc1Nc1ncc3ccn(-c4ccccc4)c3n1)CN(C)CC2 [Example 36, 6-methoxy-2-methyl-N-(7-phenyl-7H-pyrrolo[2,3-d]pyrimidin-2-yl)-1,2,3,4-tetrahydroisoquinolin-7-amine]	< 2			
COc1cc2c(cc1Nc1ncc3ccn(-c4ccccn4)c3n1)CN(C)CC2 [Example 37, 6-Methoxy-2-methyl-N-(7-(pyridin-2-yl)-7H-pyrrolo[2,3-d]pyrimidin-2-yl)-1,2,3,4-tetrahydroisoquinolin-7-amine]	< 2		100 to 500 nM	
